For one experiment, the system named is ryanodine receptor. In words: FK506-induced Ca2+ leakage in sarcoplasmic reticulum derived from canine myocardium (fluo 3 indicator). In kind it is biochemical. The following applies: for Ca2+ leakage inhibitory effect: 30 μM FK506 + 1 μM thapsigargin, value 20 seconds after addition, canine myocardial sarcoplasmic reticulum; for Ca2+ leakage inhibitory effect / Ca2+ leakage inhibitory activity compared with R2P: polypeptide 0.1, 0.3 or 1.0 μM. The method, then:
Ca^2+ leakage inhibitory activity was measured through the method of Yano, M., et al. [Yano, et al., Circulation, 102, 2131-2136 (2000)].
Firstly, sarcoplasmic reticulum was prepared from canine myocardium through the method of Kranias, et al. [Kranias E., et al., Biochim. Biophys. Acta., 709, 28-37 (1982)].
Subsequently, the sarcoplasmic reticulum (0.2 mg/mL) was incubated in 0.5 mL of 20 mM MOPS buffer (pH 6.8) containing […] potassium gluconate, 0.2 mM EGTA-calcium buffer (free calcium: Ca^2+=0.3 μM), and 10 mM NaN3.
After the fluorescence value was maintained constant, 0.5 mM ATP (product of Sigma) and 0.5 mM magnesium chloride were added to the resultant mixture, to thereby initiate Ca^2+ uptake. The time course of Ca^2+ uptake was measured. Ca^2+ uptake was measured by means of fluo 3 (product of Molecular Probes) serving as a Ca^2+ indicator, and the fluorescence intensity at an excitation wavelength of 480 nm and an emission wavelength of 530 nm was measured by means of a fluorometer.
After Ca^2+ uptake reached a plateau, 1 μM thapsigargin (product of Wako Pure Chemical Industries, Ltd.) was added to thereby inhibit sarco(endo)plasmic reticulum Ca-ATPase (SERCA) activity for elimination of the influence of SERCA. The difference between the fluorescence value before addition of ATP and the fluorescence value at the time of completion of ATP-induced active Ca^2+ uptake (i.e., the fluorescence value at the time when Ca^2+ uptake reached a plateau) was taken as 100%.
Ca^2+ leakage induced by simultaneous addition of thapsigargin and 30 μM FK506 (product of Fujisawa Pharmaceutical Co., Ltd,), which was regarded as a control of Ca^2+ leakage induction, was measured by means of a Ca^2+ indicator.
A polypeptide obtained in (a) above (concentration: 0.1 μM, 0.3 μM, or 1.0 μM) and FK506 (30 μM/L) were added simultaneously with administration of thapsigargin, and the effect of inhibiting the thus-induced Ca^2+ leakage via ryanodine receptor was measured by means of a Ca^2+ indicator in a manner similar to that described above.
In each of these figures, the vertical axis corresponds to the value as measured 20 seconds after addition of thapsigargin, FK506, and a polypeptide. The value is the average of data of measurement performed twice or three times.

Experiment [1] relates to neuron death during cerebral ischemia. Conditions: Neurosci. Lett., 158: 105-108 (1993); cited from earlier work.
In a further experiment the test system is normal canine model. The following applies: cited from earlier work.
For experiment [2], the system named is tachycardia-induced canine heart failure model. The following applies: cited from earlier work.
The next experiment concerns the target RyR2 (Canis lupus familiaris, UniProt A0A8I3MT21). The following applies: cited from earlier work.
In experiment [3] the test system is ischemic reperfusion injury. Conditions: Hypertens. Res., 25: 303-9 (2002); cited from earlier work.

Sequence of RyR2 (A0A8I3MT21 1-4967): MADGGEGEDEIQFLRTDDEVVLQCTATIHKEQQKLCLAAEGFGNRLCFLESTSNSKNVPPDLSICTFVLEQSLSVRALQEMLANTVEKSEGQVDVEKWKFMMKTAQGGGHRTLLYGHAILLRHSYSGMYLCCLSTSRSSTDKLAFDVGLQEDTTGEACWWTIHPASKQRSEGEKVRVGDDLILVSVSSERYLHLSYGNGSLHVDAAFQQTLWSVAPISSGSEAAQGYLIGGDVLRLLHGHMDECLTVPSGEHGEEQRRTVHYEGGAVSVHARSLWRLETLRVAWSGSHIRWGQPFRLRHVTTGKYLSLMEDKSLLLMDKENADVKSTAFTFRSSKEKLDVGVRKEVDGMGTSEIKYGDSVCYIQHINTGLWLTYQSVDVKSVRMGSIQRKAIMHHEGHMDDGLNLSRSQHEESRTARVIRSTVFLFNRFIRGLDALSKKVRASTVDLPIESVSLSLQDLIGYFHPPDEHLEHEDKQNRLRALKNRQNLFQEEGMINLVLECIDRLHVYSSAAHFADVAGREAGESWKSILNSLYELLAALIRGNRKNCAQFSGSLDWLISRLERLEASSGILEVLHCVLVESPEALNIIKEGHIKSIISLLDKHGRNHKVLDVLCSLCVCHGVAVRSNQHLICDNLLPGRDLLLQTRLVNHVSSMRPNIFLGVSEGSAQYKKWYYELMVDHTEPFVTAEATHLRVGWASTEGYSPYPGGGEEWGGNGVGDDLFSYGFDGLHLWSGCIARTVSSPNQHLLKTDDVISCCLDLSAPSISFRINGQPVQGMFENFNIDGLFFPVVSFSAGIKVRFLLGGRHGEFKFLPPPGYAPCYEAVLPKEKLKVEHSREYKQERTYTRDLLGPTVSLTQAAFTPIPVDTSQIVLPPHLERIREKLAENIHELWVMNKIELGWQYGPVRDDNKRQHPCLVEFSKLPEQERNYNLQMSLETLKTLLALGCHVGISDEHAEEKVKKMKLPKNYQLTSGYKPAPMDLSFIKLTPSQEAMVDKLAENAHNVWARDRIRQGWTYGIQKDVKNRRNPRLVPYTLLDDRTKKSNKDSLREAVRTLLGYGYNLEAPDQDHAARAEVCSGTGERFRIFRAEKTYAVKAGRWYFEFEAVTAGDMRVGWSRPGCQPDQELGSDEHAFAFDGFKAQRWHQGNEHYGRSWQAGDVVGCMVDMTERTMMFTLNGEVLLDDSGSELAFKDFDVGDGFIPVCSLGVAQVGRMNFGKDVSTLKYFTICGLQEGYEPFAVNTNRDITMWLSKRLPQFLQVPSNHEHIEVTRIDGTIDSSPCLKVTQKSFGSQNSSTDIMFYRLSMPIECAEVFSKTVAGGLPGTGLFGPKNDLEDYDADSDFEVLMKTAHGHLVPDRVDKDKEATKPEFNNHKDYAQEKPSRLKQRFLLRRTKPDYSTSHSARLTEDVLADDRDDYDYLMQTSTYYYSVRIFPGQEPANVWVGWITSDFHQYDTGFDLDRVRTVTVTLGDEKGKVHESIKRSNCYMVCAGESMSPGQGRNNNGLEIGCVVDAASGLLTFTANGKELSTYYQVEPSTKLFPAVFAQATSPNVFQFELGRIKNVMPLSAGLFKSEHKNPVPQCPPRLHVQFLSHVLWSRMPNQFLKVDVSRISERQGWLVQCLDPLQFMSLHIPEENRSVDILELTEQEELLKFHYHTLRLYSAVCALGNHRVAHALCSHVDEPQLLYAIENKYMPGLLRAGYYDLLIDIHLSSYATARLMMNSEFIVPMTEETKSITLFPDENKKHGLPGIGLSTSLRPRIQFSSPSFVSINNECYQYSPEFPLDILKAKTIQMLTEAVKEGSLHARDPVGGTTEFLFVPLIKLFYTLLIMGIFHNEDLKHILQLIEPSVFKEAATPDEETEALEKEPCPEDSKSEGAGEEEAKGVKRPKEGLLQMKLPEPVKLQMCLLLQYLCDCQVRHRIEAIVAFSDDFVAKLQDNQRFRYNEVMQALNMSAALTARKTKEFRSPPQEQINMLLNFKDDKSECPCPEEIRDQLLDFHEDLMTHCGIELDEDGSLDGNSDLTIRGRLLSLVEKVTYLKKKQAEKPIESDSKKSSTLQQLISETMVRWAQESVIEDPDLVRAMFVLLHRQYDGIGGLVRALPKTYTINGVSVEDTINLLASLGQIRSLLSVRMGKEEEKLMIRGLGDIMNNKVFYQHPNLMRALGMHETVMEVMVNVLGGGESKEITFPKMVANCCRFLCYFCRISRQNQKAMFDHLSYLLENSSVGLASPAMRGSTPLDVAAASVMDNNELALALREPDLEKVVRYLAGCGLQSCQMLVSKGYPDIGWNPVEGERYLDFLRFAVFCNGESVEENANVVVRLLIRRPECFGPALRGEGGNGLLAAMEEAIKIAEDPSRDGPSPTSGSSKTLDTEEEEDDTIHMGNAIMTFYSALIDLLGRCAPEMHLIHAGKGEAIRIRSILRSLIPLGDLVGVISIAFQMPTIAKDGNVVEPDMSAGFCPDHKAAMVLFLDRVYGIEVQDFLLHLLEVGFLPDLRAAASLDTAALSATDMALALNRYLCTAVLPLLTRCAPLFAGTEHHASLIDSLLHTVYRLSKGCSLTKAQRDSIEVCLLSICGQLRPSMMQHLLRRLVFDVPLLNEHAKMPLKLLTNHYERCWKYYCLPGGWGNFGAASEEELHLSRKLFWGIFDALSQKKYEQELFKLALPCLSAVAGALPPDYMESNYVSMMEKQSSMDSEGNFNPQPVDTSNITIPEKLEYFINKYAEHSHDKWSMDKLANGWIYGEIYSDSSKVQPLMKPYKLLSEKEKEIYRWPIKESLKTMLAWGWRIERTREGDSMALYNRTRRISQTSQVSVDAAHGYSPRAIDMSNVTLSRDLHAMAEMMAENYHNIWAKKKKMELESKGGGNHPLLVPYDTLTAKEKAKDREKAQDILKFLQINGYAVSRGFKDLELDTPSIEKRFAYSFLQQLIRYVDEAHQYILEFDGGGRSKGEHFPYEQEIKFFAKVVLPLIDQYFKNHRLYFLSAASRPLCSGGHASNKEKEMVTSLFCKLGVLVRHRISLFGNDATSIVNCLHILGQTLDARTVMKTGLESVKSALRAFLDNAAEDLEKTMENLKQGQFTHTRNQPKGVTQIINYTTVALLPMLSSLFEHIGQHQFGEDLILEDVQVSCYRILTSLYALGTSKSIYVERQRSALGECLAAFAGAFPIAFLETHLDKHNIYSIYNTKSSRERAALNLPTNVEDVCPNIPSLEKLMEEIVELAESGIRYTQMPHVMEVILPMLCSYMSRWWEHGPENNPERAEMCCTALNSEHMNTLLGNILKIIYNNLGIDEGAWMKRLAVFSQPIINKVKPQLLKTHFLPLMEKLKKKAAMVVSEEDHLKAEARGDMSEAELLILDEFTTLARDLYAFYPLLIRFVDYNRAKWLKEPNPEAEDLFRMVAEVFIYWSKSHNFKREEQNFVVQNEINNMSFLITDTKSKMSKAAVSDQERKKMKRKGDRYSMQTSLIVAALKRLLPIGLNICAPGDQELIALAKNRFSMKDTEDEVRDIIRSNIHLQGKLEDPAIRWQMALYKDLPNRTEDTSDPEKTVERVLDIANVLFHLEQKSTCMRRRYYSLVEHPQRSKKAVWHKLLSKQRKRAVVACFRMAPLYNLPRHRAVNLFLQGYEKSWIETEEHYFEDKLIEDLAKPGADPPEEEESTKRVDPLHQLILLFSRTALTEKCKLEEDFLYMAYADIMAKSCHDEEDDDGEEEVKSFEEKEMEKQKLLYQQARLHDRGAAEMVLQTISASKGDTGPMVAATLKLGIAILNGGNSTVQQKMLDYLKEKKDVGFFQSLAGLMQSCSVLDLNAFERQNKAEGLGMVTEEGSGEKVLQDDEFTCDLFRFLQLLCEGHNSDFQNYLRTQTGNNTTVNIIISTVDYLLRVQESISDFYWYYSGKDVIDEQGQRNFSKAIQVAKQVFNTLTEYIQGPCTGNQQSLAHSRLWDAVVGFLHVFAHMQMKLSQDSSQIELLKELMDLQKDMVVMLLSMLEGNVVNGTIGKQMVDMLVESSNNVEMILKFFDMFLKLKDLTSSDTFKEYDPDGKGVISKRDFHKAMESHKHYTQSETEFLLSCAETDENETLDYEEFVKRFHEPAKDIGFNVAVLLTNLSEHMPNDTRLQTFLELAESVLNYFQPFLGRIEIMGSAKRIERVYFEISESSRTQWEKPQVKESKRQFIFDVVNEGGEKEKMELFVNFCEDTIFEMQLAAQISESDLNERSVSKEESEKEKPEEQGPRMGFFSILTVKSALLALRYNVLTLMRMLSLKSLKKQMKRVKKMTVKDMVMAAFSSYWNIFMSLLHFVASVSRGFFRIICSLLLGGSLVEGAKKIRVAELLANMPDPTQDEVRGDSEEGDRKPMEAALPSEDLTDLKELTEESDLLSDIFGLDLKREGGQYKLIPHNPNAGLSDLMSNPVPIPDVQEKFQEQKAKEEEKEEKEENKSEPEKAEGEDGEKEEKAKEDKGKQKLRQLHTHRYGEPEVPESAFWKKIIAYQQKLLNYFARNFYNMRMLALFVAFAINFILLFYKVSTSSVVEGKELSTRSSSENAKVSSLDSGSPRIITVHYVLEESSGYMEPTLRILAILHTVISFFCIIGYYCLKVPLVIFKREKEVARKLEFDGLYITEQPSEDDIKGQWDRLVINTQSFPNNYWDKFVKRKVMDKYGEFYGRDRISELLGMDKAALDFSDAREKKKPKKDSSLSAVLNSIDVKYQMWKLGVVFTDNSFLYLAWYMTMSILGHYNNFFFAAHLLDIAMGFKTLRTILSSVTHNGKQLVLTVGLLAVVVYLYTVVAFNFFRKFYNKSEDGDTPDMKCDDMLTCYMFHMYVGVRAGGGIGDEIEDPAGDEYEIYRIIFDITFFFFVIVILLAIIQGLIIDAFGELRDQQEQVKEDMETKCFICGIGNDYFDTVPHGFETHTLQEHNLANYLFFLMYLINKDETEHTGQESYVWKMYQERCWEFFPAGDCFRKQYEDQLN

Regarding “RP13-32: hRyR2 amino acid Nos. 2126-2145; deletion of 12 N-terminal and four C-terminal amino acids of R2P (IRSLLSVRMGKEEEKLMIRG)”, the “Ca2+ leakage inhibitory effect” value in the experiment on ryanodine receptor is recorded as “exhibit Ca^2+ leakage inhibitory effect in a concentration-dependent manner”. For the same compound, in the experiment on ryanodine receptor (FK506-induced leakage), the “Ca2+ leakage inhibitory activity compared with R2P” value is recorded as “lower than that of R2P”.
The like results for “RP1-30: hRyR2 amino acid Nos. 2114-2143; deletion of six amino acids at the C-terminal of R2P (EDTINLLASLGQIRSLLSVRMGKEEEKLMI)” were, in that order, “exhibit Ca^2+ leakage inhibitory effect in a concentration-dependent manner” and “lower than that of R2P”.
Turning to “RP1-20: hRyR2 amino acid Nos. 2114-2133; deletion of 16 amino acids at the C-terminal of R2P (EDTINLLASLGQIRSLLSVR)”, in the experiment with ryanodine receptor, the “Ca2+ leakage inhibitory effect” value is reported as “exhibit Ca^2+ leakage inhibitory effect in a concentration-dependent manner”. In addition, in the experiment on ryanodine receptor (FK506-induced leakage), the “Ca2+ leakage inhibitory activity compared with R2P” value is “lower than that of R2P”.
With “R2JF: hRyR2 amino acid Nos. 2086-2133; SEQ ID NO: 14 peptide introduced to the N-terminal of RP1-20 (VLLHRQYDGIGGLVRALPKTYTINGVSVEDTINLLASLGQIRSLLSVR)”, in the experiment with ryanodine receptor, the “Ca2+ leakage inhibitory effect” value is recorded as “exhibit no Ca^2+ leakage inhibitory effect”.
Consider “SEQ ID NO: 14: hRyR2 amino acid Nos. 2086-2113 (VLLHRQYDGIGGLVRALPKTYTINGVSV)”, for which, in the experiment with ryanodine receptor, the “Ca2+ leakage inhibitory effect” value is listed as “having no Ca^2+ leakage inhibitory effect”.
Regarding `O=C1CN(/N=C/c2ccc(-c3ccc([N+](=O)[O-])cc3)o2)C(O)=N1` [dantrolene], in experiment [1], the “Inhibition of neuron death during cerebral ischemia” value is listed as “inhibit neuron death during cerebral ischemia”.
Regarding “R2P: 36 amino acids corresponding to positions 2114 to 2149 of human ryanodine receptor type 2 (hRyR2) (EDTINLLASLGQIRSLLSVRMGKEEEKLMIRGLGDI)”, the “Ca2+ leakage inhibitory effect compared with control JTV519” value with ryanodine receptor (1.0 μM polypeptide vs 0.3 μM JTV519, FK506-induced leakage) is “comparable to that of 0.3 μM JTV519”. In the experiment with ryanodine receptor, the “Ca2+ leakage inhibitory effect” value is “inhibits Ca^2+ leakage in a concentration-dependent manner”.
As for “MSV-RP2: M+2112-2149; addition of methionine, serine and valine to the N-terminal of R2P (MSVEDTINLLASLGQIRSLLSVRMGKEEEKLMIRGLGDI)”, the “Ca2+ leakage inhibitory effect” value in the experiment on ryanodine receptor was “exhibit Ca^2+ leakage inhibitory effect in a concentration-dependent manner”. In addition, the “Ca2+ leakage inhibitory activity compared with R2P” value in the experiment on ryanodine receptor (FK506-induced leakage) is “lower than that of R2P”.
As to `COc1ccc2c(c1)CN(C(=O)CCN1CCC(Cc3ccccc3)CC1)CCS2` [JTV-519], the “Effect on cardiac function” value in the experiment with normal canine model is “exhibit no effect on cardiac function”; in experiment [2], “exhibit the effect of improving cardiac function”. The “Correction of abnormal Ca2+ leakage via RyR2” value at RyR2 (Non-Patent Document 9) is recorded as “corrects abnormal Ca^2+ leakage via RyR2”. Also, on RyR2 (known property of the control), the “Inhibition of Ca2+ leakage from the sarcoplasmic reticulum of failing myocardium” value is “inhibit Ca^2+ leakage from the sarcoplasmic reticulum of failing myocardium in a concentration-dependent manner”. The “Effect on ischemic reperfusion injury” value in experiment [3] is given as “effective for ischemic reperfusion injury”.
Consider “RP1-25: hRyR2 amino acid Nos. 2114-2138; deletion of 11 amino acids at the C-terminal of R2P (EDTINLLASLGQIRSLLSVRMGKEE)”, for which the “Ca2+ leakage inhibitory effect” value in the experiment on ryanodine receptor is listed as “exhibit Ca^2+ leakage inhibitory effect in a concentration-dependent manner”. The “Ca2+ leakage inhibitory activity compared with R2P” value in the experiment with ryanodine receptor (FK506-induced leakage) is on record as “lower than that of R2P”.
The corresponding values for “RP17-36: hRyR2 amino acid Nos. 2130-2149; deletion of 16 amino acids at the N-terminal of R2P (LSVRMGKEEEKLMIRGLGDI)” are “exhibit Ca^2+ leakage inhibitory effect in a concentration-dependent manner” and “lower than that of R2P”.
